# Measurements as given in paper PMC9781652, “Dinuclear Iron Complexes of Iminopyridine-Based Ligands as Selective Cytotoxins for Tumor Cells and Inhibitors of Cancer Cell Migration” (Pharmaceutics, 2022).
# Legend:
# [1] = test system: NCI-H460 human lung carcinoma cells; assay: Cell proliferation assay (MTT), NCI-H460; type: cell-based
# Experimental: (§1) Cells were seeded into 96-well plates at densities of 1500 cells per well for OVCAR-8, 1900 for NCI-H460, and 4000 for CCD-18Co. After 24 h of incubation, they were treated for 72 h with different concentrations of the compounds (concentration range: 0.01 to 6 μM for OVCAR-8; 0.05 to 2 μM for NCI-H460; and 0.07 to 70 μM for CCD-18Co cells). When indicated, cells were also incubated with 30 µM of the ROS scavenger Manganese (III) 5,10,15,20-tetrakis (4-benzoic acid) porphyrin (MnTBAP) (Calbiochem, San Diego, CA, USA). Cell viability was measured using the MTT assay as previously described. The IC50 value corresponds to the concentration of the assayed compound that is required to inhibit the cell proliferation by 50%, and was calculated by linear interpolation from the obtained growth curves. All data are reported as the mean ± standard error (SE) calculated from at least three independent experiments with three replicates in each.
# [2] = test system: OVCAR-8 human ovarian carcinoma cells; assay: Cell proliferation assay (MTT), OVCAR-8; type: cell-based
# Experimental: as §1
# [3] = test system: CCD-18Co human colon fibroblasts; assay: Cell proliferation assay (MTT), non-tumor CCD-18Co; type: cell-based; details: non-tumor cells, 72 h exposure, mean ± SE
# Experimental: as §1
# [4] = test system: MDA-MB-231 human breast carcinoma cells; assay: Cytotoxicity on MDA-MB-231; type: cell-based
# supercoiled pUC18 DNA = assay: DNA interaction analysis by agarose gel electrophoresis; type: biochemical; details: highest concentrations, 24 h, 37 °C, with H2O2
# Experimental: The interaction of DNA with the compounds was monitored in an agarose gel electrophoresis as previously described. […] Two other samples were included in the assays: a sample of pUC18 DNA alone as negative control and a sample of pUC18 DNA with 5 µg/mL cisplatin for comparison purposes. […] Gels were stained with ethidium bromide (1 µg/mL in TBE) for 15 min and DNA bands were visualized under UV light.
# NCI-H460 cells [5] = assay: Apoptosis analysis, Annexin V-Alexa Fluor 488/PI flow cytometry, NCI-H460; type: cell-based, human; details: NCI-H460, 0.64 µM, 72 h
# Experimental: (§2) Quantitative analysis of apoptotic cell death caused by compound 10 treatment was carried out by flow cytometry using the Alexa Fluor 488 annexin V/PI Vybrant Apoptosis Assay Kit (Molecular Probes, Eugene, OR, USA) as previously described. Briefly, NCI-H460 cells (7 × 10^4 per well) and OVCAR-8 cells (8 × 10^4 per well) were seeded into 6-well plates and then treated with compound 10 (0.64 μM for NCI-H460 and 1.65 μM for OVCAR-8) for 72 h in serum starved medium. After treatment, we collected attached and floating cells, washed them in cold PBS and stained them for 15 min in the dark with Annexin V-Alexa Fluor 488 and propidium iodide (PI) at room temperature. Cells were analyzed using NovoCyte Flow Cytometer (ACEA Biosciences, San Diego, CA, USA) and NovoExpress software (ACEA Biosciences, San Diego, CA, USA). At least 10,000 cells within the gated region were analyzed.
# OVCAR-8 cells [6] = assay: Apoptosis analysis, Annexin V-Alexa Fluor 488/PI flow cytometry, OVCAR-8; type: cell-based, human; details: OVCAR-8, 1.65 µM, 72 h
# Experimental: as §2
# NCI-H460 cells [7] = assay: Cell cycle phase analysis (PI flow cytometry), NCI-H460; type: cell-based, human; details: NCI-H460, 0.3 µM, 72 h
# Experimental: (§3) NCI-H460 and OVCAR-8 cells were treated for 72 h with compound 10 (0.3 μM for NCI-H460 and 0.8 μM for OVCAR-8). Then, they were collected and fixed at −20 °C with 70% ethanol for at least 1 h. Fixed cells washed with cold PBS were resuspended in PBS at a cell density of 1–2 × 10^6 cells/mL, treated at 37 °C for 30 min with ribonuclease A (100 μg/mL) and PI (40 μg/mL) (Molecular Probes, Eugene, OR, USA), and analyzed by flow cytometric. At least 10,000 cells within the gated region were analyzed on a NovoCyte Flow Cytometer (ACEA Biosciences, San Diego, CA, USA). Cell cycle distribution was analyzed using NovoExpress software (ACEA Biosciences, San Diego, CA, USA).
# OVCAR-8 cells [8] = assay: Cell cycle phase analysis (PI flow cytometry), OVCAR-8; type: cell-based, human; details: OVCAR-8, 0.8 µM, 72 h
# Experimental: as §3
# NCI-H460 cells [9] = assay: Flow cytometric analysis of ROS generation (carboxy-H2DCFDA), NCI-H460; type: cell-based, human; details: NCI-H460, 0.7, 1.5 or 3 µM, 48 or 72 h
# Experimental: (§4) ROS generation after treatment with the compounds was analyzed using a carboxy-20, 70-dichlorodihydrofluorescein diacetate probe (carboxy-H2DCFDA) (Invitrogen, Waltham, MA). ROS species oxidize this molecule to green fluorescent dichlorofluorescein (DCF), allowing their detection inside the cells using a flow cytometer. A total of 24 h prior to treatments cells were seeded at 70,000 cells/well in 6-well plates in phenol red-free RPMI. Then, they were treated for 48 or 72 h at 37 °C with different concentrations of compound 10 (0.7, 1.5, or 3 μM for NCI-H460 cells and 2, 4.5, or 9 μM for OVCAR-8 cells) for 48 or 72 h at 37 °C. After treatments, cells were washed with PBS and incubated for 30 min at 37 °C in the dark with either 1 μM (NCI-H460 cells) or 0.5 μM (OVCAR-8 cells) carboxy-H2DCFDA diluted in PBS. Cells were then collected with phenol red-free trypsin and analyzed using a NovoCyte Flow cytometer. NovoExpress software (ACEA Biosciences, San Diego, CA, USA) was used to stablish the geometric mean fluorescence intensity of 10,000 cells.
# OVCAR-8 cells [10] = assay: Flow cytometric analysis of ROS generation (carboxy-H2DCFDA), OVCAR-8; type: cell-based, human; details: OVCAR-8, 2, 4.5 or 9 µM, 48 or 72 h
# Experimental: as §4
# MDA-MB-231 cells = assay: Transwell cell migration assay; type: cell-based, human; details: 0.1 µM, 24, 48 or 72 h
# Experimental: MDA-MB-231 cells were seeded into the upper chamber of a 24-well transwell insert (8 µm pore size; Sarstedt, Nümbrecht, Germany) at a density of 12,000 cells/0.5 mL RPMI 1640 medium with 0.5% FBS and treated with 0.1 µM compound 10 (corresponding to an IC20). The lower chamber was filled with 0.5 mL RPMI 1640 medium with 10% FBS as a chemoattractant. The cells on the upper side of the inserts were removed with a cotton swab after 24, 48, or 72 h of incubation at 37 °C. Cells that migrated to the lower side of the inserts were fixed for 30 min with 4% paraformaldehyde and stained for 20 min at room temperature with 0.2% crystal violet solution. Ten randomly selected fields at 200× magnification were counted using an Olympus CKX41 inverted microscope (Tokyo, Japan).
compound,measurement,setting,value
"CC#N.CC#N.CC#N.CC#N.Cc1cc(N=Cc2cccc(C)n2)c2c(c1)C1CC(O2)Oc2c(N=Cc3cccc(C)n3)cc(C)cc21.Cc1cc(N=Cc2cccc(C)n2)c2c(c1)C1CC(O2)Oc2c(N=Cc3cccc(C)n3)cc(C)cc21.F[B-](F)(F)F.F[B-](F)(F)F.F[B-](F)(F)F.F[B-](F)(F)F.[Fe+2].[Fe+2] [Compound 10, [Fe2(4)2(CH3CN)4](BF4)4]",IC50,"[1]; 72 h exposure, MTT, mean ± SE",0.64 ± 0.05 µM
same,SI NCI-H460 (selectivity index),[1]; ratio IC50 CCD-18Co / IC50 NCI-H460,33.7
same,IC50,"[2]; 72 h exposure, MTT, mean ± SE",1.65 ± 0.26 µM
same,Cellular viability with vs without ROS scavenger MnTBAP,"[2]; OVCAR-8, MTT, 30 µM MnTBAP",MnTBAP reduces the antiproliferative effect
same,SI OVCAR-8 (selectivity index),[2]; ratio IC50 CCD-18Co / IC50 OVCAR-8,13.1
same,IC50,[3],21.6 ± 3.18 µM
same,IC50,[4]; MDA-MB-231 cells,0.25 µM
same,"fold lower IC50 than that described for cisplatin, MDA-MB-231",[4]; cisplatin value from literature,about 250 fold
same,IC20,"[4]; concentration used in migration assay, corresponding to an IC20",0.1 µM
same,Effect on pUC18 DNA in the presence of H2O2 at the highest concentrations,supercoiled pUC18 DNA,total DNA degradation
same,percentage of cells that enter in apoptosis (early + late),NCI-H460 cells [5],about 82%
same,Early apoptotic cells (%),NCI-H460 cells [5]; serum starved medium,13.72 ± 4.34%
same,Late apoptotic cells (%),NCI-H460 cells [5]; serum starved medium,68.61 ± 3.04%
same,Necrotic cells (%),NCI-H460 cells [5]; serum starved medium,1.29 ± 0.27%
same,Viable cells (%),NCI-H460 cells [5]; serum starved medium,16.37 ± 2.32%
same,percentage of cells that enter in apoptosis (early + late),OVCAR-8 cells [6],~66%
same,Early apoptotic cells (%),OVCAR-8 cells [6]; serum starved medium,36.12 ± 2.32%
same,Late apoptotic cells (%),OVCAR-8 cells [6]; serum starved medium,30.82 ± 2.60%
same,Necrotic cells (%),OVCAR-8 cells [6]; serum starved medium,1.27 ± 0.08%
same,Viable cells (%),OVCAR-8 cells [6]; serum starved medium,31.79 ± 3.27%
same,% G0/G1,NCI-H460 cells [7],57.62%
same,% G2/M,NCI-H460 cells [7],15.58%
same,% S,NCI-H460 cells [7],21.71%
same,% Sub-G1,NCI-H460 cells [7],5.10%
same,Effect on cell cycle phase distribution vs untreated cells,NCI-H460 cells [7],do not show significant changes in the cell cycle phase distribution
same,% G0/G1,OVCAR-8 cells [8],41.91%
same,% G2/M,OVCAR-8 cells [8],28.36%
same,% S,OVCAR-8 cells [8],23.09%
same,% Sub-G1,OVCAR-8 cells [8],6.61%
same,Effect on cell cycle phase distribution vs untreated cells,OVCAR-8 cells [8],shift in the cell population from the G0/G1 phase to the S and G2/M phases
same,ROS levels (fold-increase vs control),NCI-H460 cells [9],ROS levels rise with time and concentration
same,ROS levels (fold-increase vs control),OVCAR-8 cells [10],ROS levels rise with time and concentration
same,Migration of MDA-MB-231 cells,MDA-MB-231 cells,significantly reduces the migration
